Source: BindingDB's records for patent US20240382465 (Zhejiang Hisun Pharmaceutical, 2024)

Target: T1, UDP-3-O-acyl-N-acetylglucosamine deacetylase (Pseudomonas aeruginosa (strain ATCC 15692 / DSM 22644 / CIP 104116 / JCM 14847 / LMG 12228 / 1C / PRS 101 / PAO1), UniProt P47205)
T1 sequence (P47205 whole entry): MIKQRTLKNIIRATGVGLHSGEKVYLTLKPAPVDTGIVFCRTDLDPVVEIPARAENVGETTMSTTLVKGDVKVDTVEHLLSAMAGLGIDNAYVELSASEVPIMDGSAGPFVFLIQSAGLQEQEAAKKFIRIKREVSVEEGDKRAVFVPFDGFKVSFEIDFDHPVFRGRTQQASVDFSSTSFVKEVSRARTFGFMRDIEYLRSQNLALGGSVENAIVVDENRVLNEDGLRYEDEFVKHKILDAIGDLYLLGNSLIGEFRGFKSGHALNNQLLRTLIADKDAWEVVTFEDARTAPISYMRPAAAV
Test: LpxC Enzymatic Activity Assay
Experimental: The experimental procedure is briefly described as follows: The test compound was first dissolved in DMSO to prepare a 10 mM stock solution. The reaction was carried out in a 96-well microplate. First, 20 μL of recombinant Pseudomonas aeruginosa LpxC (purchased from Signalway Antibody, product number AP74647-2) was added to each well, with a final concentration of 5 nM. 5 μL of the compound to be tested was then added, and the compound was diluted 4 times to 8 concentration points with a concentration range of 0.61-10,000 nM. 5 μL of LpxC substrate UDP-3-O—(R-3-hydroxydecanoyl)-GlcNAc (purchased from Biosynth Carbosynth, product number: mu75071) was added, with a final concentration of the substrate of 10 μM. The plate was incubated at 25° C. for 120 minutes. Then 20 μL of 2.0 mg/mL fluorescamine (purchased from sigmaaldrich, product number: F9015, solvent: 1:1 dimethylformamide/acetonitrile) was added to the reaction system, and mixed well for 10 minutes of reaction. Finally, 50 μL of 200 mM sodium phosphate buffer (pH 8.0) was added to terminate the reaction. Reading was carried out using a microplate reader (BMG), and the excitation and emission wavelengths were 390 and 495 nm respectively.

Row | SMILES | IC50
1 | C[C@H](O)c1nccn1Cc1cc(-c2ccc(C#Cc3ccc(N4CCN(C)CC4)cc3)cc2)on1 [US20240382465, Example 65] | 64.6 nM
2 | C[C@H](O)c1nccn1Cc1cc(-c2ccc(C#Cc3ccc(NC4CCOCC4)cc3)cc2)on1 [US20240382465, Example 66] | 67.9 nM
